Assay results taken from US9968694B2, “Compositions and methods for non-invasive imaging” (MERRIMACK PHARMACEUTICALS, INC., priority 2012, dated 2018).
Like-named read-outs stand apart in the source and are kept apart here. Blank lines part the entries; values can stand above or below the molecule they belong to.

How the values were obtained:
[1] = ^64Cu chelation efficiency of 4-DEAP-ATSC by instant thin layer chromatography (ITLC); assay type: physicochemical
Source text: […] An instant thin layer chromatography (ITLC) assay was used for quantifying the fractions of uncomplexed ^64Cu and ^64Cu(II)-4-DEAP-ATSC complex in the chelation mixture. The uncomplexed ^64Cu can be detected at the solvent front, while the ^64Cu(II)-4-DEAP-ATSC complex remained at the origin where the sample is spotted.

[2] = Efficiency of ^64Cu:4-DEAP-ATSC loading into liposomes, size exclusion chromatography; assay type: physicochemical
Description: The efficiency of liposome loading for Step 2 (see FIG. 3) was determined. […] Encapsulated (liposomal) radioactivity was separated from total radioactivity using size exclusion chromatography. From this it was determined that >90% of the ^64Cu was loaded into the liposome at 4-DEAP-ATSC:lipid ratios <2 mol % as shown in Table 2.

[3] = Storage stability of 4-DEAP-ATSC formulations (degradation); assay type: physicochemical
Description: Various 4-DEAP-ATSC formulations (see Table 10 below) were stored under different conditions. At designated time points, samples were collected where their storage stability were evaluated by functional readouts.
4-DEAP-ATSC was formulated in citrate buffer in a range of pH (pH 4-7). […] At a pH of between 6 and 7, the rates of degradation were very similar, with less than 15% degradation observed over a 4-month period when stored at −20° C. or 4° C.
4-DEAP-ATSC formulated in citrate buffer was stored at 4 different temperatures (−20° C., 4° C., 30° C., and 37° C.). […] (>60%) over a 1-month period. On the other hand, 4-DEAP-ATSC formulations stored at −20° C. and 4° C. can be stably preserved with less than 15% of degradation detected over a period of 4 months.
Various 4-DEAP-ATSC formulations were lyophilized and stored under different conditions to study the effect of lyophilization on their storage stability. […] In addition, mannitol was added to the formulation to serve as a bulking agent for lyophilization.
A set of 4-DEAP-ATSC formulations was filled with argon as an alternative means to improve storage stability of the liquid formulations. […] Significant degradation was still detected in formulations stored at elevated temperatures (30° C. and 37° C.). Additionally, storage stability of inert gas-filled lyophilized formulations was similar to air-filled lyophilized formulations (FIG. 19F).

[4] = Cu complex formation in HS buffer (appearance, precipitation); assay type: physicochemical; conditions: 0.1 mM chelator and Cu in HS buffer pH 6.5
Description: Cu:4-DEAP-ATSC and Cu:ATSM complexes were formed as follows. In 1 mL HS were added 5 μL of 20 mM CuSO4 and 5 μl of 20 mM 4-DEAP-ATSC (in DMSO) or 5 μL of 20 mM ATSM (in DMSO). […] The chelator and Cu concentration was 0.1 mM.

[5] = over several weeks, cited from earlier work

Chelation Efficiency ([1]; Specific Radioactivity 0.01 mCi/nmol): 11-46%
Chelation Efficiency ([1]; Specific Radioactivity 0.04 mCi/nmol): 98%
Chelation Efficiency ([1]; Specific Radioactivity 0.07 mCi/nmol): 68-97%
Chelation Efficiency ([1]; Specific Radioactivity 0.08 mCi/nmol): 99%
Chelation Efficiency ([1]; Specific Radioactivity 0.09 mCi/nmol): 99%
Chelation Efficiency ([1]; Specific Radioactivity 0.1 mCi/nmol): 99-100%
Chelation Efficiency ([1]; Specific Radioactivity 0.15 mCi/nmol): 98-99%
Chelation Efficiency ([1]; Specific Radioactivity 0.17 mCi/nmol): 96%
Chelation Efficiency ([1]; Specific Radioactivity 0.18 mCi/nmol): 94%
Chelation Efficiency ([1]; Specific Radioactivity 0.2 mCi/nmol): 96-99%
Chelation Efficiency ([1]; Specific Radioactivity 0.3 mCi/nmol): 98%
Chelation Efficiency ([1]; Specific Radioactivity 0.65 mCi/nmol): 99%
Chelation Efficiency ([1]; Specific Radioactivity 13.1 mCi/nmol): 99%
efficiency of chelation ([1]; specific radioactivities ranging from 0.07-0.3 mCi/nmol): 94-99%
^64Cu Loading Efficiency ([2]; 4-DEAP-ATSC:Lipid Ratio 0.01% (mol %)): 96-98%
^64Cu Loading Efficiency ([2]; 4-DEAP-ATSC:Lipid Ratio 0.04% (mol %)): 96-98%
^64Cu Loading Efficiency ([2]; 4-DEAP-ATSC:Lipid Ratio 0.10% (mol %)): 95-97%
^64Cu Loading Efficiency ([2]; 4-DEAP-ATSC:Lipid Ratio 0.15% (mol %)): 92-97%
^64Cu Loading Efficiency ([2]; 4-DEAP-ATSC:Lipid Ratio 0.25% (mol %)): 92-97%
^64Cu Loading Efficiency ([2]; 4-DEAP-ATSC:Lipid Ratio 0.40% (mol %)): 94-98%
^64Cu Loading Efficiency ([2]; 4-DEAP-ATSC:Lipid Ratio 0.50% (mol %)): 92-96%
^64Cu Loading Efficiency ([2]; 4-DEAP-ATSC:Lipid Ratio 0.67% (mol %)): 96%
^64Cu Loading Efficiency ([2]; 4-DEAP-ATSC:Lipid Ratio 0.75% (mol %)): 92%
^64Cu Loading Efficiency ([2]; 4-DEAP-ATSC:Lipid Ratio 1% (mol %)): 93-98%
^64Cu Loading Efficiency ([2]; 4-DEAP-ATSC:Lipid Ratio 2% (mol %)): 91-97%
^64Cu Loading Efficiency ([2]; 4-DEAP-ATSC:Lipid Ratio 4.20% (mol %)): 86%
^64Cu Loading Efficiency ([2]; 4-DEAP-ATSC:Lipid Ratio 5.00% (mol %)): 92-93%
^64Cu Loading Efficiency ([2]; 4-DEAP-ATSC:Lipid Ratio 10% (mol %)): 82-92%
^64Cu Loading Efficiency ([2]; 4-DEAP-ATSC:Lipid Ratio 25% (mol %)): 90%
^64Cu Loading Efficiency ([2]; 4-DEAP-ATSC:Lipid Ratio 50% (mol %)): 71%
^64Cu loaded into the liposome ([2]; 4-DEAP-ATSC:lipid ratios <2 mol %): > 90%
degradation ([3]; citrate buffer pH between 6 and 7, 4-month period, stored at −20° C. or 4° C.): less than 15%
degradation ([3]; citrate buffer, stored at 30° C. and 37° C., 1-month period): > 60%
degradation ([3]; citrate buffer, stored at −20° C. and 4° C., period of 4 months): less than 15%
effect of inert gas atmosphere on storage stability ([3]; liquid formulations filled with argon): did not improve storage stability
effect of lyophilization on storage stability ([3]; lyophilized formulations): effective method to inhibit degradation
effect of mannitol on storage stability ([3]; mannitol as bulking agent for lyophilization): no effect on the storage stability
Structure (SMILES): CCN(CC)CCCNC(=S)NN=C(C)C(C)=NNC(=S)NCCCN(CC)CC [Sample 4-DEAP-ATSC, diacetyl 4,4′bis (3-(N,N-diethylamino)propyl)thiosemicarbazone]
appearance of Cu complex sample [4]: remained clear, without any signs of precipitation

Structure (SMILES): [Cu] [copper]
Toxic dose levels ([5]; 65 kg adult): ~154 µg/kg
Toxic dose levels [5]: > 10 mg/person/day

Structure (SMILES): CNC(=S)NN=C(C)C(C)=NNC(=S)NC [ATSM, diacetyl 4-methylthiosemicarbazone, reference compound]
appearance of Cu complex sample [4]: became turbid and developed a brown precipitate
